From PubChem BioAssay (NCI)
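Cultured in 96-well plates, cells were exposed to test compound for 48 hours across five concentrations. GI50: concentration for 50% inhibition of growth. At the TGI there is no net growth.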

Columns and labels:
Assay in all cases: growth of human tumour cells (NCI), 48 h
[1] = tested on: M14 melanoma
[2] = tested on: HOP-92 NSCLC
[3] = tested on: UO-31 renal
[4] = tested on: UACC-62 melanoma
[5] = tested on: RXF 393 renal
[6] = tested on: CAKI-1 renal
[7] = tested on: ACHN renal
[8] = tested on: SF-268 CNS
[9] = tested on: MDA-MB-435
[10] = tested on: A498 renal
[11] = tested on: IGROV1 ovarian
[12] = tested on: UACC-257 melanoma
[13] = tested on: MALME-3M melanoma
[14] = tested on: TK-10 renal
[15] = tested on: COLO 205 colon
[16] = tested on: HCT-15 colon
[17] = tested on: SK-MEL-2 melanoma
[18] = tested on: SNB-75 CNS
[19] = tested on: SN12C renal
[20] = tested on: SK-OV-3 ovarian
[21] = tested on: OVCAR-8 ovarian
[22] = tested on: SK-MEL-5 melanoma
[23] = tested on: MCF7 breast
[24] = tested on: SNB-19 CNS
[25] = tested on: SF-295 CNS
[26] = tested on: CCRF-CEM leukemia
[27] = tested on: HCT-116 colon
[28] = tested on: MDA-MB-231 breast
[29] = tested on: KM12 colon

Q: What does the source list for CN1CCN(Cc2ccc(NC(=O)c3cnc(F)c(C#Cc4cnc(N)c5ncccc45)c3)cc2C(F)(F)F)CC1?
A: GI50 [1]: 74.6 nM; TGI [1]: 601 nM; GI50 [2]: 133 nM; TGI [2]: 1170 nM; GI50 [3]: 140 nM; TGI [3]: 1160 nM; GI50 [4]: 103 nM; TGI [4]: 586 nM; GI50 [5]: 122 nM; TGI [5]: 567 nM; GI50 [6]: 110 nM; TGI [6]: 877 nM; GI50 [7]: 119 nM; TGI [7]: 5270 nM; GI50 [8]: 324 nM; TGI [8]: 6350 nM; GI50 [9]: 141 nM; TGI [9]: 6090 nM; GI50 [10]: 161 nM; TGI [10]: 963 nM; GI50 [11]: 139 nM; TGI [11]: 7480 nM; GI50 [12]: 339 nM; TGI [12]: 6510 nM; GI50 [13]: 50.8 nM; TGI [13]: 234 nM; GI50 [14]: 679 nM; TGI [14]: 11600 nM; GI50 [15]: 190 nM; TGI [15]: 5330 nM; GI50 [16]: 184 nM; TGI [16]: 7530 nM; GI50 [17]: 114 nM; TGI [17]: 451 nM; GI50 [18]: 643 nM; TGI [18]: 6470 nM; GI50 [19]: 161 nM; TGI [19]: 5570 nM; GI50 [20]: 263 nM; TGI [20]: 8700 nM; GI50 [21]: 425 nM; TGI [21]: 22200 nM; GI50 [22]: 735 nM; TGI [22]: 5050 nM; GI50 [23]: 309 nM; TGI [23]: 5760 nM; GI50 [24]: 1940 nM; TGI [24]: 11900 nM; GI50 [25]: 294 nM; TGI [25]: 9240 nM; GI50 [26]: 188 nM; TGI [26]: 20800 nM; GI50 [27]: 150 nM; TGI [27]: 2990 nM; GI50 [28]: 189 nM; TGI [28]: 1140 nM; GI50 [29]: 6.61 nM
